Consider three molecules from patent US3984501A, “Phenyl- and benzylphosphonate esters” (priority 1975, dated 1976).

Where two headings read alike, the source gives them in different places.

Data set [1] relates to PGE2-induced contraction of isolated guinea pig ileum (GPI) and isolated rat fundus (RF). The data set can be described thus: Inhibition of PGE2-induced contraction of isolated smooth muscle preparations (anti-prostaglandin activity). Type of data set: cell-based. Conditions: for IC50: isolated GPI or RF (tissue not specified per value), incubation 15 min initial exposure, 5 min each successive increment, read-out: I.C.50 (vs PGE2). The protocol:
(§1) The following compounds were tested for their effects on isolated smooth muscle preparations ##SPC18##
(§2) the techniques for setting up the isolated guinea pig ileum (GPI) and isolated rat fundus (RF) were those described in Pharmacological Experiments on Isolated Preparations (E. S. Livingston Ltd., Publishers). The tissues were bathed in Krebs solution and isotonic contractions were recorded. To elicit a maximal contraction after the initial equilibration period, the tissue (GPI or RF) was exposed to 20 ng/ml acetylcholine (ACh). After a dose-dependent pattern was established with ACh, the tissue was exposed to 20 ng/ml of PGE2 in order to elicit a maximal prostaglandin-induced contraction. Test doses of PGE2 and ACh which cause 50% of the maximal contractions were determined.
(§3) To test a compound for anti-prostaglandin activity, the tissue was incubated with a compound for a fixed period of time (15 minutes for the initial exposure to the test drug and 5 minutes for each successive increment in concentration) followed by the test dose of PGE2 or ACh to elicit a tissue contraction. Inhibition of contraction was measured as percent reduction in the magnitude of the response to the test dose of PGE2. The concentration of drug which inhibited the test concentration of PGE2 by 50% (I.C.50) was determined from the dose-response curve obtained by plotting concentration versus percent inhibition. Test contractions with ACh determined whether any decrease in contraction amplitude was specific for prostaglandin-induced contractions or a general deterioration of tissue function. The term selectivitiy refers to % inhibition of ACh-induced contractions at compound dosages which inhibi the PGE2 -induced contraction by the indicated percentage.

Data set [2] deals with ACh-induced contractions of isolated guinea pig ileum (GPI) and isolated rat fundus (RF). The data set is described as follows: Inhibition of ACh-induced contraction of isolated smooth muscle (selectivity). Type of data set: cell-based. Conditions: for Selectivity: % inhibition of ACh-induced contractions at dosages which inhibit the PGE2-induced contraction by 50%: at 50% inhibition of PGE2-induced contraction; for Selectivity: % inhibition of ACh-induced contractions at dosages which inhibit the PGE2-induced contraction by 70%: at 70% inhibition of PGE2-induced contraction; for Selectivity: % inhibition of ACh-induced contractions at dosages which inhibit the PGE2-induced contraction by 90%: at 90% inhibition of PGE2-induced contraction. As for the experimental part: as §1, §2, §3

Data set [3] is described as follows: Systemic toxicity in male Swiss Webster mice. Type of data set: in vivo, mouse. Conditions: mouse, in vivo, in saline, 24 hours, read-out: L.D.50 at 24 hours. As for the experimental part:
(§4) Compounds 1-3 were tested for systemic toxicity. Male Swiss Webster mice were injected (i.p. or p.o.) with the test compound dissolved in saline (0.2 ml). The mice were examined every half hour for the first two hours after treatment and every hour for the following four hours. Thereafter the mice were examined irregularly, with a final examination at the end of the 48-hour test.

The nature of data set [4]: Topical toxicity in hairless mice. Conditions: mouse, in vivo, topical or ocular, topically, 0.1 ml of 90% PEG, read-out: L.D.50 at 24 hours. The protocol: Topical toxicity was determined at a single dosage level on two hairless mice. The animals were restrained with neck collars. The test compound was applied in a total volume of 0.1 ml of 90% PEG (10% H2 O) spread uniformly over the back by means of a Q-tip.

The next data set has as its system male Swiss Webster mice. The data set can be described thus: Systemic toxicity in male Swiss Webster mice. Particulars: from Table 2, vs compound 1. The class given is in vivo, mouse. As for the experimental part:
as §4

Regarding `O=C(c1ccc(OP(=O)(O)Oc2ccccc2)cc1)C(Cc1ccccc1)Cc1ccc(Cl)cc1` (centres unmarked) [Compound 1, reference compound], the IC50 in data set [1] (Cavia porcellus) came out at 47 nM. Moreover, the “Selectivity: % inhibition of ACh-induced contractions at dosages which inhibit the PGE2-induced contraction by 50%” value (“Selectivity: % inhibition … by 50%” for short) in data set [2] was 0%. For the same molecule, the “Selectivity: % inhibition of ACh-induced contractions at dosages which inhibit the PGE2-induced contraction by 70%” value (shortened to “Selectivity: % inhibition … by 70%”) in data set [2] is recorded as 0%. The “Selectivity: % inhibition of ACh-induced contractions at dosages which inhibit the PGE2-induced contraction by 90%” value (“Selectivity: % inhibition … by 90%” below) in data set [2] is 0%. Besides, the values for the LD50 at 24 h in data set [3] (ip), in data set [3] (po) and in data set [4] were 194 mg/kg, 235 mg/kg and more than 4300 mg/kg, respectively.
As to `O=C(c1ccc(OP(=O)(O)c2ccccc2)cc1)C(Cc1ccccc1)Cc1ccc(Cl)cc1` (centres unmarked) [Compound 2], in data set [1], the IC50 turned out to be 200 nM. Moreover, in data set [2], the “Selectivity: % inhibition … by 50%” value stood at 0%, the “Selectivity: % inhibition … by 70%” value was 0% and the “Selectivity: % inhibition … by 90%” value worked out at 30%. In addition, in data set [3] (ip), the LD50 at 24 h was found to be 361 mg/kg. In the data set with male Swiss Webster mice, the “toxicity relative to compound 1” value is “considerably less toxic than compound 1”.
On to `O=C(c1ccc(OP(=O)(O)Cc2ccccc2)cc1)C(Cc1ccccc1)Cc1ccc(Cl)cc1` (centres unmarked) [Compound 3], for which the IC50 in data set [1] amounted to 6.1 nM. Besides, the “times more potent than compound 1” value in data set [1] (potency ratio vs compound 1, from Table 1) is “about 8 times”. Also, the “times more potent than compound 2” value in data set [1] (potency ratio vs compound 2, from Table 1) is listed as “approximately 30 times”. For the same molecule, in data set [2], the “Selectivity: % inhibition … by 50%” value worked out at 0%. In data set [2], the “Selectivity: % inhibition … by 70%” value was 0%. The “Selectivity: % inhibition … by 90%” value in data set [2] is 10-15%. The LD50 at 24 h in data set [3] (ip) is 408 mg/kg; in data set [3] (po), 715 mg/kg; in data set [4] it was more than 4350 mg/kg. In addition, the “toxicity relative to compound 1” value with male Swiss Webster mice is listed as “considerably less toxic than compound 1”.
